Our source for the IC50 and EC50 values is patent US11440923B2, “Substituted macrocyclic indole derivatives” (Bayer Aktiengesellschaft, priority 2017, dated 2022).

Usually IC50 stands for the concentration at which inhibition is half-maximal. The term EC50 denotes the concentration giving half of the maximal effect.

Molecules are shown by their SMILES. Structures can show the parent of a compound that is named as a salt. Where two headings read alike, the source gives them in different places.

Assay type in all cases: cell-based
Data set [1] concerns SUDHL5 cells. Put plainly: Antiproliferation assay SUDHL5 (Assay 7). Summed up: (§1)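 CTG luminescence readout; cells plated, overnight at 37 °C, then 72 h compound treatment. Time-zero plate read in parallel. IC50 from day 0 and DMSO-normalised signal.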
The subject of another data set is SK-MEL-2 cells. Put plainly: Antiproliferation assay SK-MEL-2 (Assay 7). Particulars: Homo sapiens, SK-MEL-2; 72 h, CellTiter-Glo; read-out: Antiproli SK-MEL-2 IC50 median. The method, then: (§2) Assessment of the Anti-Proliferative Effect of Compounds in Different Cell Lines
(§3) The impact of compounds on the proliferation of different cell lines was assessed using the CellTiter-Glo® Luminescent Cell Viability reagent from Promega (G7573).
(§4) In parallel, cells were plated in a reference (day 0) plate for time zero determination. Cells were incubated in a humidified incubator at 37° C. overnight.
(§5) Rim wells were excluded. The cells were incubated for 72 h hours in a humidified incubator at 37° C. The day 0 plate was measured by adding 30 μL/well of CTG solution (CellTiter-Glo® Luminescent Cell Viability reagent, Promega G7573) to time zero wells in the reference plate followed by a 10 minutes incubation and luminescence reading at 0.1 ms. using the PHERAstar FS microplate reader (BMG Labtech).
(§6) After 72 h incubation, the treated plates were measured in the same way as the day 0 plate mentioned above. The Bella DRC Master Sheet was used to calculate IC50s, with CI=day 0 values and C0=DMSO control values.
(In general: In ATP-based viability assays light output follows the ATP content of the culture.)

A further data set concerns SNU-389 cells. Briefly: Antiproliferation assay SNU-389 (Assay 7). To be noted: 72 h, CellTiter-Glo; read-out: Antiproli SNU-389 IC50. The procedure: as §2, §3, §4, §5, §6
Data set [2] has as its system SUDHL10 cells. Briefly: Induction of caspase-3/7 activity in SUDHL10 cells (Assay 4). The essentials:
(§7)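 Caspase-3/7 activity measured in DLBCL lines after 3 h compound exposure at 37 °C, following overnight plating; Caspase-Glo 3/7 luminescence read after 1 h at 37 °C. Medium-only background subtracted, values normalized to mean of DMSO-treated cells.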

The test system of a further data set is DMS-114 cells. Put plainly: Antiproliferation assay DMS-114 (Assay 7). To be noted: Homo sapiens; DMS-114 cells, 72 h, CellTiter-Glo; read-out: Antiproli DM-S114 IC50 median. The method, then:
as §2, §3, §4, §5, §6

Data set [3] concerns SUDHL5 cells. Briefly: Induction of cytotoxicity in SUDHL5 cells (Assay 6). To be noted: 5 h, CellTiter-Glo, read-out: Cytotox SUDHL5 IC50 (median). Summed up:
(§8)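 Overnight seeding, 37 °C; 5 h compound exposure; CellTiter-Glo, 15 min RT shake; luminescence read. No-cell medium control.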

In data set [4] the test system is SUDHL5 cells. Put plainly: Induction of caspase-3/7 activity in SUDHL5 cells (Assay 4). Summed up:
as §7

In the next data set the test system is SNU-16 cells. Briefly: Antiproliferation assay SNU-16 (Assay 7). To be noted: Homo sapiens, SNU-16; 72 h, CellTiter-Glo; read-out: Antiproli SNU-16 IC50 median. The procedure: as §2, §3, §4, §5, §6
The subject of another data set is HMC-1-8 cells. Briefly: Antiproliferation assay HMC-1-8 (Assay 7). The essentials:
as §1

The test system of another data set is AMO-1 cells. Put plainly: Antiproliferation assay AMO-1 (Assay 7). To be noted: 72 h, CellTiter-Glo, read-out: Antiproli AMO-1 IC50 median. Summed up:
as §1

The next data set concerns A-431 cells. Briefly: Antiproliferation assay A-431 (Assay 7). To be noted: Homo sapiens, A-431; 72 h, CellTiter-Glo; read-out: Antiproli A-431 IC50 median. The method, then: as §2, §3, §4, §5, §6
The next data set has as its system PA-1 cells. Put plainly: Antiproliferation assay PA-1 (Assay 7). To be noted: Homo sapiens, PA-1; 72 h, CellTiter-Glo; read-out: Antiproli PA-1 IC50 median. The method, then:
as §2, §3, §4, §5, §6

The test system of data set [5] is SUDHL10 cells. Briefly: Induction of cytotoxicity in SUDHL10 cells (Assay 6). Particulars: 5 h, CellTiter-Glo, read-out: Cytotox SUDHL10 IC50 (median). Summed up: as §8
The target in data set [6] is MCL1 protein / biotinylated BIM BH3 peptide in RKO cells (Homo sapiens (Human), UniProt Q07820). Put plainly: PIxEL: protein-protein interaction in permeabilized cells by ELISA (Assay 5). Particulars: PIxEL IC50 (median). The procedure: PIxEL: Protein-Protein Interaction in Permeabilized Cells by ELISA
Sequence of MCL1 protein / biotinylated BIM BH3 peptide in RKO cells (Q07820 whole entry, the tested form may be a part): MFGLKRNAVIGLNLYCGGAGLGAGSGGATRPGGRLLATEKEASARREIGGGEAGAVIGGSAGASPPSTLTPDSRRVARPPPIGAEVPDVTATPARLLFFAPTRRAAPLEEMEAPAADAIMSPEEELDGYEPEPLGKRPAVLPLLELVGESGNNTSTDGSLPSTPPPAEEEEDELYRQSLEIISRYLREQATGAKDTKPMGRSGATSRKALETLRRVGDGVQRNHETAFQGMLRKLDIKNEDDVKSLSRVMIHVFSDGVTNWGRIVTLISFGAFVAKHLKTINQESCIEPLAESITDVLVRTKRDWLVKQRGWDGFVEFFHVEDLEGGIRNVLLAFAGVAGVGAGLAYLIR
Most MCL1 protein molecules are localized at the mitochondria outer membrane and sequester pro-apoptotic proteins through binding of their BCL2 homology domain 3 (BH3 domain). MEB buffer (150 mM mannitol, 10 mM HEPES pH 7.5, 50 mM KCl, 20 μM EDTA, 20 μM EGTA, 5 mM potassium succinate, 0.1% protease-free BSA (SIGMA) with low dose digitonin (0.002%) permeabilizes plasma membrane while leaves live mitochondria, where MCL1 maintains its native localization and conformation. Unlike biophysical assays (e.g. TR-FRET) that use truncated recombinant MCL1 protein, this assay uses full length endogenous MCL1 protein at mitochondria outer membrane. It measures the interaction between MCL1 protein and biotinylated BIM BH3 peptide. Compounds can compete with BIM BH3 peptide to bind to MCL1 protein.
On day 1, RKO colon cancer cell line cells were plated at 0.8 million cells/ml, 100 μl/well in 96-well flat bottom TC plates (Corning). MCL1 antibody (Santa Cruz sc-12756) were diluted at 200 fold (final concentration 1 μg/ml) in carbonate buffer (Thermo Fisher Scientific, pH 9.6), and 50 μl of diluted antibody was added to each well of high bind ELISA plates ([…]). Each plate was tapped to make sure liquid covering entire bottom of wells and incubate at 37° C. overnight.
On the second day, MCL1 antibody was washed from ELISA plate. 250 μl Odyssey® Blocking Buffer (PBS) (Li-Cor) was added to each well, incubated at room temperature for at least 1 hour, then washed once with 250 μl 1×PBST. Plates with RKO cells were gently washed once with 100 μl/well PBS, once with 100 μl/well MEB buffer without digitonin, then 100 μl of MEB buffer with 0.002% digitonin was gently added to each well. Compounds were added with HP Tecan compound dispenser in 3-fold dilution series, highest dose 30 μM, 10-dose per compound in quadruplicates. Biotin-BIM peptide (synthesized by 21st Century) was added with HP Tecan compound dispenser at 0.2 μM immediately after the addition of compounds. Plates were rocked for 1 hour at room temperature. Then MEB buffer was aspirated and 50 μl of CHAPS buffer (50 mM Tris-Cl, pH 7.4, 150 mM NaCl, 1% CHAPS, 1 mM EDTA, 1 mM EGTA, cOmplete protease inhibitors (Roche), PhosSTOP (Roche)) was added to each well. Plates were rocked for 1 hour at 4° C., then 45 μl cell lysate from each well were transferred to ELISA plates coated with MCL1 antibody. Plates were incubated overnight in the cold room with rocking.
On the third day, ELISA plates were washed once with 250 μl 1×PBST. Streptavidin-poly-HRP (Thermo Fisher Scientific) was diluted to 20 ng/ml in Odyssey blocking buffer plus 0.05% Triton-100, and 100 μl was added to each well of the ELISA plate. Plates were incubated at room temperature for 1 hour with rocking, then washed with 100 μl 1×PBST for 3 times. Each SuperSignal ELISA Femto Maximum Sensitivity substrate was added to a 50-ml tube and mixed, then 100 μl of mixed substrate was added to each well. Plates were shaken for 1 minute then luminescence was measured by Envision plate reader […]. Signal of each well were normalized by no-compound control and no-cell control. IC50 was calculated using Graphic Pad PRISM software.

The mark [7] stands for this setting: 72 h, CellTiter-Glo; read-out: Antiproli SUDHL5 IC50 (median).
The mark [8] stands for this setting: caspase-3/7 induction, 3 h; read-out: Caspase SUDHL10 EC50 (median).
Setting [9] is: caspase-3/7 induction, 3 h; read-out: Caspase SUDHL5 EC50 (median).
[10] abbreviates: 72 h, CellTiter-Glo; read-out: Antiproli HMC-1-8 IC50 median.

Consider `CCc1c2c(nn1C)C(CCN1CCOCC1)N(C)CCCCn1c(C(=O)O)c(CCCOc3cccc4cc(F)ccc34)c3ccc(Cl)c-2c31` (single isomer, unassigned) [Example 94, 4-chloro-3-ethyl-7-{3-[(6-fluoronaphthalen-1-yl)oxy]propyl}-2,14-dimethyl-15-[2-(morpholin-4-yl)ethyl]-10,11,12,13,14,15-hexahydro-2H-pyrazolo[3′,4′:8,9][1,6]diazacycloundecino[10,11,1-hi]indole-8-carboxylic Acid], for which the IC50 amounted to 40 nM with SUDHL5 cells [1] (setting [7]); 299 nM with SK-MEL-2 cells; 305 nM in the data set on SNU-389 cells; 133 nM in the data set on DMS-114 cells; 40 nM in the data set on SUDHL5 cells [3]; 221 nM with SNU-16 cells. In addition, the IC50 with HMC-1-8 cells (setting [10]) was determined as 777 nM; in the data set on AMO-1 cells, 41.3 nM; in the data set on A-431 cells, 361 nM; with PA-1 cells, 218 nM. Moreover, the results for the EC50 with SUDHL10 cells [2] (setting [8]) and in the data set with SUDHL5 cells [4] (setting [9]) were 23 nM and 36 nM, respectively.

On to `CCc1c2c(nn1C)C(CCN1CCOCC1)OCC(F)(F)CCn1c(C(=O)O)c(CCCOc3cccc4cc(F)ccc34)c3ccc(Cl)c-2c31` (single isomer, unassigned; (+)) [Example 90, (+)-4-chloro-3-ethyl-12,12-difluoro-7-{3-[(6-fluoronaphthalen-1-yl)oxy]propyl}-2-methyl-15-[2-(morpholin-4-yl)ethyl]-2,10,11,12,13,15-hexahydropyrazolo[4′,3′:9,10][1,6]oxazacycloundecino[8,7,6-hi]indole-8-carboxylic Acid], for which the IC50 in the data set on SUDHL5 cells [1] (setting [7]) was found to be 30 nM; in the data set on SK-MEL-2 cells, 252 nM; in the data set on SNU-389 cells, 141 nM; in the data set on DMS-114 cells, 163 nM; in the data set with SUDHL5 cells [3], 30 nM; in the data set on SNU-16 cells it was 1110 nM. Besides, the IC50 came to 416 nM in the data set with HMC-1-8 cells (setting [10]), 24.2 nM in the data set on AMO-1 cells, 209 nM with A-431 cells and 422 nM in the data set on PA-1 cells. Besides, the results for the EC50 in the data set with SUDHL10 cells [2] (setting [8]) and in the data set on SUDHL5 cells [4] (setting [9]) were 13 nM and 27 nM, respectively.

Take `Cc1c2c(nn1C)C(CCN1CCOCC1)OCCCCn1c(C(=O)O)c(CCCOc3cccc4ccccc34)c3ccc(F)c-2c31` (single isomer, unassigned; enantiomer 1) [Example 8, 4-fluoro-2,3-dimethyl-15-[2-(morpholin-4-yl)ethyl]-7-{3-[(naphthalen-1-yl)oxy]propyl}-2,10,11,12,13,15-hexahydropyrazolo[4′,3′:9,10][1,6]oxazacycloundecino[8,7,6-hi]indole-8-carboxylic Acid—N-ethylethanamine Salt (Enantiomer 1)]: the IC50 in the data set with SUDHL5 cells [1] (read-out: Antiproli SUDHL5 IC50 (median); 72 h, CellTiter-Glo) worked out at 30 nM; with SUDHL10 cells [5] it was 140 nM; in the data set with SUDHL5 cells [3], 76 nM; in [6], 617 nM. The EC50 with SUDHL10 cells [2] (read-out: Caspase SUDHL10 EC50 (median); caspase-3/7 induction, 3 h) was 150 nM; in the data set with SUDHL5 cells [4] (read-out: Caspase SUDHL5 EC50 (median); caspase-3/7 induction, 3 h), 64 nM.

Take `CCc1c2c(nn1C)C(CCN1CCC(F)(F)C1)OCCCCn1c(C(=O)O)c(CCCOc3cccc4cc(F)ccc34)c3ccc(Cl)c-2c31` (single isomer, unassigned; enantiomer 1) [Example 58, 4-chloro-15-[2-(3,3-difluoropyrrolidin-1-yl)ethyl]-3-ethyl-7-{3-[(6-fluoronaphthalen-1-yl)oxy]propyl}-2-methyl-2,10,11,12,13,15-hexahydropyrazolo[4′,3′:9,10][1,6]oxazacycloundecino[8,7,6-hi]indole-8-carboxylic Acid (Enantiomer 1)]: the IC50 worked out at 29 nM in the data set on SUDHL5 cells [1] (Homo sapiens, SU-DHL-5, 72 h, 72 h, CellTiter-Glo; read-out: Antiproli SUDHL5 IC50 (median)); 728 nM with SK-MEL-2 cells; 43 nM with SUDHL10 cells [5] (Homo sapiens, SU-DHL10, 5 h); 223 nM in the data set on SNU-389 cells; 81.1 nM in the data set on DMS-114 cells; 28 nM in the data set with SUDHL5 cells [3] (Homo sapiens, SU-DHL-5, 5 h). Besides, the IC50 with SNU-16 cells was determined as 135 nM; in the data set on HMC-1-8 cells (72 h, CellTiter-Glo, read-out: Antiproli HMC-1-8 IC50 median) it was 328 nM; with AMO-1 cells (Homo sapiens, AMO1, 72 h), 19.4 nM; in the data set on A-431 cells, 486 nM; in the data set on PA-1 cells, 110 nM. Moreover, the EC50 is 23 nM in the data set with SUDHL10 cells [2] (Homo sapiens, SU-DHL10, 3 h, caspase-3/7 induction, 3 h; read-out: Caspase SUDHL10 EC50 (median)) and 26 nM in the data set on SUDHL5 cells [4] (Homo sapiens, SU-DHL-5, 3 h, caspase-3/7 induction, 3 h; read-out: Caspase SUDHL5 EC50 (median)).
